Data on five molecules can be found in patent publication US20140147411A1, “METHODS OF TREATING CANCER AND TESTING MUTATION ZYGOSITY RELATED THERETO” (U.S. GOVERNMENT represented by the UNITED STATES DEPARTMENT …, priority 2012, published 2014).

The subject of experiment [1] is A375 melanoma cells. In words: Cell surface MHC class I, B2M and MHC class II by flow cytometry in A375 cells after interferon. For orientation: Flow cytometry measures light scatter and fluorescence of single cells or particles in a stream.
Description: A representative western blot is shown. A375 cells were pre-treated with vehicle (DMSO) or 10 μM of PLX4720 60 minutes prior to the addition of IFN-γ (100 U/ml). Whole cell lysates were prepared 24 hours later and levels of phospho-ERK (Thr 202/Tyr 204) and total ERK protein were analyzed by western blot. B, A representative flow cytometry histogram is shown. A375 cells were pre-treated with vehicle (DMSO, black line, unfilled) or 10 μM PLX4720 (black dotted line) for 60 minutes prior to the addition of IFN-γ (10 U/ml). Control cells were left untreated (gray filled). Cell surface MHC class I was analyzed using flow cytometry 72 hours later using an antibody that recognizes a shared epitope on HLA-A, B and C molecules. Cells stained with an isotype control antibody are shown (black filled). C, Averaged mean fluorescence intensity (MFI) from three independent flow cytometry experiments is shown (y-axis) and treatments are indicated along the x-axis. The error bars represent the SEM. (*, p<0.05; two-tailed paired Student's t test, as compared to cells treated with IFN-γ and pre-treated with DMSO).
A representative western blot is shown. […] Cell lysates were prepared 72 hours later and levels of total ERK and phospho-ERK (Thr 202/Tyr 204) protein analyzed by western blot. […] Cell surface MHC class I (HLA-A, B, C), B2M, and MHC class II (HLA-DR) levels were analyzed 72 hours later using flow cytometry. Values represent the average mean fluorescence intensity (MFI) for three independent experiments and error bars represent the SEM. […] GAPDH levels are shown as a loading control. D, Induction of HLA-A, HLA-DR, CIITA and NLRC5 mRNA in A375 cells. […] Control cells were treated only with vehicle (DMSO). Steady state mRNA levels were measured using quantitative real-time RT-PCR 72 hours later and are expressed as fold over vehicle (DMSO) treated cells. Error bars represent SEM from at least 3 independent experiments. (*, p<0.05, **, p<0.01, 2-tailed paired Student's t test, as compared to cells treated with IFN-γ and pre-treated with DMSO)
Error bars represent the SEM. […] Flow cytometry was used to select transfected (GFP positive) and non-transfected (GFP negative) cells and MHC class I levels were measured on these two cell populations. Average values from three independent experiments are shown. MHC class I levels are expressed as the % of MHC class I on control cells (cells non-transfected using the empty vector plasmid). […] Cells stained with an isotype control antibody are shown in black filled.
In experiment [2] the test system is phospho-ERK (Thr 202/Tyr 204). As to the kind of experiment: ERK phosphorylation by western blot in A375 cells. As to conditions: 10 μM PLX4720, western blot, 24 hours. Format: cell-based. (Immunoblotting shows a protein as a band on a membrane.)
Description: A representative western blot is shown. A375 cells were pre-treated with vehicle (DMSO) or 10 μM of PLX4720 60 minutes prior to the addition of IFN-γ (100 U/ml). Whole cell lysates were prepared 24 hours later and levels of phospho-ERK (Thr 202/Tyr 204) and total ERK protein were analyzed by western blot. […] The error bars represent the SEM.
A representative western blot is shown. […] Cell lysates were prepared 72 hours later and levels of total ERK and phospho-ERK (Thr 202/Tyr 204) protein analyzed by western blot. […] GAPDH levels are shown as a loading control. […] Control cells were treated only with vehicle (DMSO).
For experiment [3], the system named is CIITA mRNA. As to conditions: SKMEL-28 cells, vemurafenib 0.5 μM, IFN-γ 20 U/ml.
Description: (§1) Cell surface MHC class I (HLA-A, B and C, top panels) and MHC class II (HLA-DR, lower panels) levels were measured 72 hours later using flow cytometry. […] Fold induction of cell surface MHC class I was calculated by dividing averaged MFI values for cells treated as indicated along the x-axis by averaged MFI values of cells treated with vehicle (DMSO) alone. Fold inductions for heterozygous cell lines (MALME-3M, SKMEL-3, and SKMEL-5) were averaged together (gray bars) as were the fold inductions for three homozygous (white bars) cell lines (A375, HT-144, and SKMEL-28). […] The DMSO-treated cells (gray diamonds) from part A are compared to those treated with BEZ235 (0.5 μM, black squares). MHC class I and class II levels were assessed as in part A.
For experiment [4], the system named is SKMEL-3 cells. In words: Cell surface MHC by flow cytometry in SKMEL-3 cells after IFN-γ. The conditions noted are these: SKMEL3 cells (heterozygous for BRAFV600E), vemurafenib 0.5 μM, 72 hours.
Description: as §1
Experiment [5] has as its system SKMEL-5 cells. As to the kind of experiment: Cell surface MHC by flow cytometry in SKMEL-5 cells after IFN-γ. The conditions noted are these: SKMEL5 cells (heterozygous for BRAFV600E), vemurafenib 0.5 μM, 72 hours.
Description: as §1
In experiment [6] the test system is MALME-3M cells. In words: Cell surface MHC by flow cytometry in MALME-3M cells after IFN-γ. As to conditions: MALME-3M cells (heterozygous for BRAFV600E), vemurafenib 0.5 μM, 72 hours.
Description: as §1
For experiment [7], the system named is AKT (serine 473). As to the kind of experiment: AKT phosphorylation in the melanoma cell model system. Format: cell-based. As to conditions: BEZ235.
Experiment [8] deals with melanoma cell lines. In words: MHC induction by IFN-γ with PI3K/mTOR inhibitor in melanoma cell lines, flow cytometry. As to conditions: BEZ235 0.5 μM, MHC class I and class II, melanoma cell lines of FIG. 4.
Description: Fold induction of cell surface MHC class I was calculated by dividing averaged MFI values for cells treated as indicated along the x-axis by averaged MFI values of cells treated with vehicle (DMSO) alone. […] MHC class I and class II levels were assessed as in part A.
BEZ235 a dual PI3K/mammalian target of rapamycin inhibitor was used.
Experiment [9] has as its system SKMEL-2 (BRAF codon 600 wild-type) cells. As to the kind of experiment: Cell surface MHC by flow cytometry in SKMEL-2 cells after IFN-γ.
Description: Values represent the average mean fluorescence intensity (MFI) for three independent experiments and error bars represent the SEM. […] Control cells were treated only with vehicle (DMSO). […] Error bars represent SEM from at least 3 independent experiments.
Experiment [10] deals with BRAFV600E homozygous cell lines (A375, HT-144, and SKMEL-28). In words: Fold MHC class I induction averaged over BRAFV600E homozygous cell lines. The conditions noted are these: MFI over vehicle (DMSO) alone.
Description: The y-axis represents average MFI for at least three independent experiments except those for MeWo and SKMEL-5 which are the average of two independent experiments. […] Fold induction of cell surface MHC class I was calculated by dividing averaged MFI values for cells treated as indicated along the x-axis by averaged MFI values of cells treated with vehicle (DMSO) alone. […] MHC class I and class II levels were assessed as in part A.
Experiment [11] relates to BRAFV600E heterozygous cell lines (MALME-3M, SKMEL-3, and SKMEL-5). As to the kind of experiment: Fold MHC class I induction averaged over BRAFV600E heterozygous cell lines. The conditions noted are these: MFI over vehicle (DMSO) alone.
Description: as §1
[12] abbreviates: A375 cells, sorafenib 10 μM prior to IFN-γ 2000 U/ml, not statistically significant (ANOVA).

For the molecule `CNC(=O)c1cc(Oc2ccc(NC(=O)Nc3ccc(Cl)c(C(F)(F)F)c3)cc2)ccn1` [sorafenib], in experiment [1] (setting [12]), the “induction of MHCI molecules by IFN-γ” value was “enhanced the induction of MHCI molecules” and the “induction of the MHCII molecule HLA-DR by IFN-γ” value is given as “decreased the induction of the MHCII molecule HLA-DR”.

Regarding `CCCS(=O)(=O)Nc1ccc(F)c(C(=O)c2c[nH]c3ncc(Cl)cc23)c1F` [PLX4720], in experiment [2], the “levels of ERK phosphorylation” value is “reduced levels of ERK phosphorylation”. In addition, the “induction of MHCI molecules by IFN-γ” value in experiment [1] (A375 cells, 10 μM PLX4720 60 minutes prior to IFN-γ (10 U/ml), 72 hours) is “enhanced the induction of MHCI molecules by IFN-γ”.

Take `CCCS(=O)(=O)Nc1ccc(F)c(C(=O)c2c[nH]c3ncc(-c4ccc(Cl)cc4)cc23)c1F` [vemurafenib]: the “time after the addition of IFN-γ at which the effect on CIITA mRNA was most pronounced” value in [3] was 48 h. Further, the “induction of MHCI molecules by IFN-γ” value in experiment [4], in [5] and in experiment [6] was “no effect” throughout. For the same molecule, the “induction of MHCII molecules by IFN-γ” value in experiment [4], in [5] and in experiment [6] was “no effect” in each case.

On to `Cn1c(=O)n(-c2ccc(C(C)(C)C#N)cc2)c2c3cc(-c4cnc5ccccc5c4)ccc3ncc21` [BEZ235], for which the “phosphorylation of AKT (serine 473)” value in [7] is “reduced the phosphorylation of AKT (serine 473)”. Besides, the “induction of MHC molecules by IFN-γ” value in experiment [8] is “did not enhance the induction of MHC molecules by IFN-γ, rather, it attenuated MHC induction in some of the cell lines examined”.

B1: IFN-γ: a type II interferon, cytokine, potent inducer of MHC expression (protein, UniProt P01579 24-161, looked up)
Interferon gamma: QDPYVKEAENLKKYFNAGHSDVADNGTLFLGILKNWKEESDRKIMQSQIVSFYFKLFKNFKDDQSIQKSVETIKEDMNVKFFNSNKKKRDDFEKLTNYSVTDLNVQRKAIHELIQVMAELSPAAKTGKRKRSQMLFRG
Take B1: the “cell surface MHCI, MHCII and B2M protein levels” value in experiment [9] was “increases in cell surface MHCI, MHCII and B2M protein levels”. The “fold increase of MHCI levels by IFN-γ” value in experiment [10] and in experiment [11] was “around four” each time. Besides, the “MHCI cell surface expression” value in experiment [1] (A375 cells treated with IFN-γ alone, flow cytometry) was “lead to an induction of MHCI cell surface expression”.
